# Measured values published in publication PMC8748916, “Microbial enzymes induce colitis by reactivating triclosan in the mouse gastrointestinal tract” (Nature Communications, 2022).
# Values joined by “and” are separate entries in the source; they are usually repeats but may differ in a detail not shown here. Identical values can stand only once.
# Experiments:
# [1] = LC-MS/MS of TCS and its metabolites in human stool and urine after use of TCS-containing personal care products; assay type: in vivo; details: for TCS metabolites in human stool / TCS metabolites in human urine: Treatment TCS, individual subjects;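 on Profile in stool (%): molar share of summed TCS plus TCS-G plus TCS-sulfate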;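 on Profile in urine (%): molar share of summed TCS plus TCS-G plus TCS-sulfate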;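 on average molar concentration ratio: molar share of summed TCS plus TCS-G plus TCS-sulfate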
# From the text: To broaden our understanding of TCS metabolic profiles in the gut, we next analyzed TCS metabolism in human subjects. We utilized urine and stool samples from a previous study in which the recruited human subjects were first subjected to a washout period (no usage of TCS-containing products), then were randomly assigned to two groups that used personal care products like toothpaste with or without TCS for up to four months (see the scheme of the experiment in Fig. 1c)[15]. Previous data had established that humans are primarily exposed to TCS via toothpaste that provides a direct oral route to the gastrointestinal tract[16],[17].
# [2] = Antibiotic suppression of gut microbiota: TCS colonic metabolism in mice (80 ppm TCS diet, 4 weeks); assay type: in vivo; details: 80 ppm TCS via diet 4 weeks; antibiotic cocktail vs none
# From the text: This antibiotic composition was used in previous studies by others[20],[21] and us[22],[23]. […] After another 4 weeks, the mice were sacrificed, and their tissues were collected for LC-MS/MS analysis.
# [3] = TCS colonic metabolism in conventional vs germ-free Swiss Webster mice; assay type: in vivo; details: 6 h after oral gavage of 8 mg/kg TCS, individual mice
# DSS-induced colitis = DSS-induced colitis in mice: TCS with or without GUSi (colon length, histology, FACS, qRT-PCR); assay type: in vivo
# From the text: (§1) After another 3 weeks, the mice were stimulated with 2% DSS (molecular weight = 36–50 KDa, MP Biomedicals, Solon, OH) in drinking water for 6 days to induce colitis. At end of the experiment, the mice were sacrificed for analysis.
# (§2) Total RNA of colon tissues and MC38 cells were isolated using Trizol reagent (Ambion) according to the manufacturer’s instruction. RNA was reverse transcribed into cDNA using the High Capacity cDNA Reverse Transcription kit (Applied Biosystem) according to the manufacturer’s instructions. In all, 20 μL PCR reactions were prepared using the Maxima SYBR Green Master Mix (Thermo Fisher Scientific), and qPCR was carried out using a DNA Engine Opticon System (Bio-Rad Laboratories). Mouse-specific primer sequences (Thermo Fisher Scientific) used to detect inflammatory biomarkers are listed in Supplementary Table S6. Gapdh expression was used as an internal control.
# Distal colon tissues were dissected, washed with cold PBS, and digested with Hank’s balanced salt solution (HBSS, Lonza) supplemented with 1 mM dithiothreitol (DTT) and 5 mM EDTA at 4 °C (colon […] cells). The released cells were stained with FITC-conjugated anti-mouse CD45 (BioLegend, Clone: 30-F11), PerCP/Cy5.5-conjugated anti-mouse F4/80 (BioLegend, Clone: BM8), and PE/Cy7-conjugated anti-mouse Ly-6G/Ly-6C (GR-1) (BioLegend, Clone: RB6-8C5) with a 1:100 diluted solution. Cells were stained with Zombie Violet^TM dye (Zombie Violet^TM Fixable Viability Kit; BioLegend) according to the manufacturer’s instructions to exclude dead cells. Gating and cell identification strategies are as follows: briefly, cell doublets and clumps were eliminated using FSC-A gating and debris was eliminated using FSC-A vs SSC-A. Dead cells were gated out using Zombie Violet™ dye. Flow cytometry data were acquired on a BD LSR Fortessa^TMcell analyzer (Becton Dickinson, Franklin Lakes, NJ) and analyzed using FlowJo software (FlowJo, LLC). Gating strategies used for the identification of major immune cell populations are shown in Supplementary Fig. S17.
# The dissected colon tissues were fixed in 10% neutral buffered formalin (Thermo Fisher Scientific) for 48 h. After dehydration, the tissues were embedded in paraffin and sliced ([…]) by Rotary Microtome (Thermo Fisher Scientific). The slices were dewaxed in serial xylene and rehydrated through ethanol solutions, stained with hematoxylin and eosin (Sigma-Aldrich), and images were obtained under 200× magnification (BZ-X700 microscope, Keyence, Itasca, IL). The histologic scores were evaluated by a blinded observer according to the following measures: crypt architecture, degree of inflammatory cell infiltration, muscle thickening, goblet cell depletion, and crypt abscess. The histologic damage score is the sum of each individual score.
# [4] = Target engagement: GUSi in colon tissue and TCS to TCS-G ratio in colon digesta by LC-MS/MS; assay type: in vivo, mice; details: TCS-treated mice, no GUSi, individual mice
# Method: as §1
# Fig. S15. Orally dosed GUSi reaches the mouse colon and suppresses conversion of TCS -G to TCS. a.
# mice were stimulated with DSS to induce colitis. The final GUSi was dosed on day 25 and mice were sacrificed
# for analysis on day 27. b. GUSi is detected in the mouse colon 2 days after the final dose of the inhibitor. c.
# GUSi treatment reduces the ratio of TCS to TCS-G in colon digesta.
# per group. NA: no TCS or TCS-G detected.
# MC38 cells = experiment: Inflammatory response of MC38 intestinal epithelial cells (Il-6 RT-qPCR, IL-6 ELISA); assay type: cell-based, mouse
# Method: MC38 intestinal epithelial cells were cultured in Dulbecco’s Modified Eagle Medium (DMEM) supplemented with 10% fetal bovine serum (FBS) and incubated at 37 °C under an atmosphere of 5% CO2. MC38 cells were seeded at 20% confluency and left to settle overnight. Cells were then treated with either 1 μM TCS, TCS-G, or vehicle (DMSO). After 48 h, cells were harvested for RT-qPCR analysis. Cell medium was collected for ELISA analysis using the CBA Mouse Inflammation Kit (BD Sciences) according to the manufacturer’s instructions, and data were acquired using a BD LSR Fortessa flow cytometer (BD Biosciences) and analyzed using FlowJo software (Treestar).
# as §2
# a. Cultured murine intestinal epithelial MC38 cells were treated with 1 μM of TCS or TCS-G for 48 h prior to
# studying inflammatory responses. b. TCS increases the expression of Il-6, which encodes the pro-inflammatory
# n = 3 per group from three independent experiments, * P < 0.05, ** P < 0.01, *** P < 0.001.
# [5] = Antibiotic suppression of gut microbiota: kinetics of TCS colonic metabolism after one-time oral gavage; details: within the 24-h period; 8 mg/kg TCS oral gavage
# [6] = treatment time 0 months (after washout)
# [7] = human stool, TCS-exposed subjects
# [8] = human urine, TCS-exposed subjects
# [9] = 80 ppm TCS via diet vs vehicle, DSS-induced colitis, without GUSi
# [10] = DSS colitis mice, FACS, individual animals, Fig.5d
# [11] = DSS colitis mice, gene expression, individual animals, Fig.5e
smiles,measurement,setting,value
"Oc1cc(Cl)ccc1Oc1ccc(Cl)cc1Cl [TCS, Triclosan]",Profile in urine (%),"[1]; TCS-exposed human subjects, n=7 urine samples",1.57%
same,Profile in stool (%),"[1]; TCS-exposed human subjects, n=23 stool samples",99.16%
same,TCS metabolites in human stool,[1]; [6],< LOD and 12.62 pmol/ g stool and 10.84 pmol/ g stool and 388.08 pmol/ g stool and 57.90 pmol/ g stool
same,TCS metabolites in human urine,[1]; [6],< LOD
same,TCS metabolites in human stool,[1]; treatment time 1 month,1094.80 pmol/ g stool and 225.14 pmol/ g stool and 1049.03 pmol/ g stool and 626.33 pmol/ g stool and 215.36 pmol/ g stool and 317.47 pmol/ g stool
same,TCS metabolites in human urine,[1]; treatment time 1 month,< LOD
same,TCS metabolites in human stool,[1]; treatment time 2 months,372.82 pmol/ g stool and 713.18 pmol/ g stool and 245.09 pmol/ g stool and 96.24 pmol/ g stool and 905.85 pmol/ g stool
same,TCS metabolites in human urine,[1]; treatment time 2 months,8.55 nM urine
same,TCS metabolites in human stool,[1]; treatment time 3 months,515.81 pmol/ g stool and 334.49 pmol/ g stool and 515.22 pmol/ g stool and 400.99 pmol/ g stool and 445.98 pmol/ g stool and 105.82 pmol/ g stool
same,TCS metabolites in human urine,[1]; treatment time 3 months,< LOD
same,TCS metabolites in human stool,[1]; treatment time 4 months,633.76 pmol/ g stool and 67.29 pmol/ g stool and 968.25 pmol/ g stool and 633.96 pmol/ g stool and 135.75 pmol/ g stool and 295.56 pmol/ g stool
same,TCS metabolites in human urine,[1]; treatment time 4 months,3.06 nM urine and 6.42 nM urine and 11.23 nM urine and 5.52 nM urine
same,average molar concentration ratio,[1]; [7],99.2%
same,concentration of free TCS measured in stool (highest),[1]; [7],≤ 1 pmol/mg tissue
same,"concentration of free TCS measured in stool (highest), equated",[1]; [7],~ 1 µM
same,TCS concentrations in urine,[1]; [8],low-nM range
same,average molar concentration ratio,[1]; [8],1.6%
same,change of concentration in the fecal content by antibiotic treatment,[2],significantly reduced
same,"tcs, tcs-G in colon digesta",[3]; CONV Swiss Webster mice,35.08 pmol/mg and 44.23 pmol/mg and 53.2 pmol/mg and 70.03 pmol/mg and 36.57 pmol/mg and 25.88 pmol/mg and 61.48 pmol/mg and 14.87 pmol/mg
same,"tcs, tcs-G in colon digesta",[3]; GF Swiss Webster mice,1.71 pmol/mg and 1.97 pmol/mg and 2.79 pmol/mg and 1.05 pmol/mg and 1.69 pmol/mg
same,colon length,DSS-induced colitis; [9],reduced
same,"colonic infiltration of immune cells (CD45+ leukocytes, CD45+ F4/80+ macrophages, CD45+ Gr1+ neutrophils)",DSS-induced colitis; [9],enhanced
same,crypt damage,DSS-induced colitis; [9],more severe
same,"expression of pro-inflammatory genes (Tnf-a, Mcp-1, Il-6, Il-17, Il-23) in the colon",DSS-induced colitis; [9],increased
same,cd45+(%),DSS-induced colitis; [10],13.9% and 7.52% and 6.6% and 9.17% and 14.3% and 13.5% and 15.4%
same,f4/80+ (%),DSS-induced colitis; [10],6.98% and 7.38% and 21.2% and 6.4% and 16.3% and 14.9% and 17.1%
same,gr-1+ (%),DSS-induced colitis; [10],6.98% and 5.74% and 9.62% and 14.5% and 6.12% and 11.4% and 10%
same,Il-6,DSS-induced colitis; [11],2.766 and 2.25 and 1.456 and 1.055 and 1.808 and 1.047
same,Il-17,DSS-induced colitis; [11],3.654 and 3.3461 and 1.6638 and 1.675 and 2.194 and 1.456 and 1.44 and 2.099
same,Il-23,DSS-induced colitis; [11],1.246 and 3.908 and 1.924 and 1.869 and 2.972 and 1.28 and 1.3835 and 2.162
same,Mcp1,DSS-induced colitis; [11],1.522 and 3.593 and 1.038 and 1.619 and 1.9672 and 1.4511
same,Tnf-α,DSS-induced colitis; [11],18.081 and 1.569 and 15.9712 and 7.287 and 5.139 and 4.495 and 3.411
same,HE,"DSS-induced colitis; DSS colitis mice, histology score, individual animals, Fig.5c",5 and 10 and 8 and 7 and 9
same,colon length (cm),"DSS-induced colitis; DSS colitis mice, individual animals, Fig.5b",5.8 cm and 7.1 cm and 7 cm and 6.3 cm and 6.4 cm and 5.3 cm
same,TCS/TCSG in colon digesta,[4],69.2572 and 105.161 and 114.057 and 134.536 and 118.012 and 116.121 and 236.945 and 380.254 and 130.474 and 139.078
same,Il-6 gene expression,"MC38 cells; 1 µM, 48 h",increased
same,medium concentration of IL-6 (ELISA),"MC38 cells; 1 µM, 48 h",increased
same,Il-6 (Fig. S16b),"MC38 cells; MC38 cells, gene expression, replicates",2.497 and 4.058 and 2.001 and 8.229 and 6.742 and 2.645 and 3.872 and 1.125 and 4.892
same,IL-6 (Fig. S16c),"MC38 cells; MC38 cells, protein, replicates",31 pg/mL and 44.92 pg/mL and 38.72 pg/mL and 36.69 pg/mL and 44.27 pg/mL and 53.91 pg/mL and 47.57 pg/mL and 30.74 pg/mL and 39.61 pg/mL
same,reduction of AUC in colon digesta by antibiotic treatment,[5],~ 40%
